The source made the active and inactive calls. Rule as the data show it, for most assays here: actives have a measured EC50 and inactives only a lower limit.

Here are results for 37 compounds from ChEMBL document CHEMBL1201862, “PubChem BioAssay data set” (2004).

Test [1] concerns the target T1, RNA-binding protein pos-1 (Caenorhabditis elegans, UniProt G5EF15).
T1 sequence (G5EF15 whole entry): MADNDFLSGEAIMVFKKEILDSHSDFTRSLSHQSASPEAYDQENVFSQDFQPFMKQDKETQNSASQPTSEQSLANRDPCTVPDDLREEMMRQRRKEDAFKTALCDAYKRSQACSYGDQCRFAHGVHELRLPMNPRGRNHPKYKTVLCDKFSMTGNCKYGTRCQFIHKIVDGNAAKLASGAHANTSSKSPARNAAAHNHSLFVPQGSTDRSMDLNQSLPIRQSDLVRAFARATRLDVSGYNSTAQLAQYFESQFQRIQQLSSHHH
The test is described as follows: disruptors of C. elegans POS-1 RNA interaction – biochemical, fluorescence polarization, dose response (AID 1964).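 Also: purified POS-1 fused to maltose binding protein made in E. coli; potency of compounds blocking POS-1 binding to fluorescent RNA.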

In test [2] the target is T2, Zinc finger protein mex-5 (Caenorhabditis elegans, UniProt Q9XUB2).
T2 sequence (Q9XUB2 whole entry): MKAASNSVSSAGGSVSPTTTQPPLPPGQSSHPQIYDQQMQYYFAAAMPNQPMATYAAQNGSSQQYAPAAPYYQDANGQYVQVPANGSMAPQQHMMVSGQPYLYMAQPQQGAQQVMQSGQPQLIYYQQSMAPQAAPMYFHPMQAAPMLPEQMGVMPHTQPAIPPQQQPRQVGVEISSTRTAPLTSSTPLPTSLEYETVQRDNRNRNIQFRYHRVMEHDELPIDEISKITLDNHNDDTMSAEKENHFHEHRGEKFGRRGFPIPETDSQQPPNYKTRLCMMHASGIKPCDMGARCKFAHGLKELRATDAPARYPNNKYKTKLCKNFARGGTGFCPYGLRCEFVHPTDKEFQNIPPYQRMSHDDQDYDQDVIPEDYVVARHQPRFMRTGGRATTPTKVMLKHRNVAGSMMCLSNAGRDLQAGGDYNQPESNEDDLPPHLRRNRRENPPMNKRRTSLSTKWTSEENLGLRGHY
The test is described as follows: potency of MEX-5 RNA-binding blockers – biochemical, C. elegans, fluorescence polarization, dose response (AID 1960). (In general: Fluorescence polarisation rises when a labelled molecule tumbles more slowly, as on binding a larger partner.)

A short description of test [3]: Luminescence Cell-Based Dose Response HTS to Identify Activators of Luciferase Translation or Activity in H4 […] Cells. [Related pubchem assays: 1829 (Project Summary), 1814 (Primary HTS)]. The test is classed as functional.
For the next test, the system named is H4. The test is described as follows: Luminescence Cell-Based Dose Response HTS to Identify Activators of 5'UTR Stem-Loop Driven Prion Protein mRNA Translation in H4 Neuroglioblastoma Cells. [Related pubchem assays: 1829 (Project Summary), 1814 (Primary HTS)]. The note with it: Homo sapiens. The test is classed as functional.
A short description of test [4]: Luminescence Cell-Based Dose Confirmation HTS to Identify Activators of 5'UTR Stem-Loop Driven Alpha-Synuclein mRNA Translation in H4 Neuroglioblastoma Cells. [Related pubchem assays: 1829 (Project Summary), 1814 (Primary HTS)]. The test is classed as functional.
Test [5] addresses T3, Heat shock factor protein 1 (Mus musculus, UniProt P38532).
T3 sequence (P38532 whole entry): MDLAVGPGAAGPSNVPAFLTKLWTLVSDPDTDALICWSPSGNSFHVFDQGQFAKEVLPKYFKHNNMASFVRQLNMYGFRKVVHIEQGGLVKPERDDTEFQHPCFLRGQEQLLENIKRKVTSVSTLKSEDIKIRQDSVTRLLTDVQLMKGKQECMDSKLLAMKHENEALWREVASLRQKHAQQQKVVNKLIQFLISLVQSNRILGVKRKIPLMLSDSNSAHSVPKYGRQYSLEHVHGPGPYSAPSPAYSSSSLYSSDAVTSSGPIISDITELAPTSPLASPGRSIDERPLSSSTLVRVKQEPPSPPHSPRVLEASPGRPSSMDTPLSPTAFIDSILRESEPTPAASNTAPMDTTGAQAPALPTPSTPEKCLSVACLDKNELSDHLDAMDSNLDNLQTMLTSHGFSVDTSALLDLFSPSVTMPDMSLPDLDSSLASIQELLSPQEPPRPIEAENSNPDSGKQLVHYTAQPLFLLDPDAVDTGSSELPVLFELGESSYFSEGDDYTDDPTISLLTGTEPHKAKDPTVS
The test is described as follows: enhancement of HSF1-driven luciferase signal – cell-based, NIH3T3, luminescence, dose retest, confirmation (AID 435004).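 Also: stress induced by proteasome inhibitor MG132 added 30 min after compound; luciferase reporter driven by HSF1 response element in NIH3T3 cells; actives raise luminescence as potentiators of the MG132 stress response.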 Type of test: functional.

Test [6] addresses T4, Polyadenylate-binding protein 1 (Homo sapiens, UniProt P11940). The test is described as follows: MLLE domain peptide-binding blockers, IC50 – biochemical, fluorescence polarization, FITC-PAM2 peptide, dose response (AID 602259). Type of test: functional. The note with it: read-out: IC50_Mean.
Test [7] has as its target T4, Polyadenylate-binding protein 1. The test is described as follows: MLLE binding blockers, Cy5 peptide tracer – biochemical, fluorescence polarization, Cy5-PAM2 peptide, secondary, miRNA deadenylation inhibitor project, dose response (AID 602260). The test is classed as functional. The note with it: read-out: IC50_Mean.
A short description of test [8]: luciferase reporter signal suppression in cells – H4 neuroglioma cells, luminescence, dose response (AID 1990). The test is classed as functional, cell-based. (Reporter assays use an easily measured gene product as a stand-in for the process of interest.)
Test [9] is described as follows: alpha-synuclein stem-loop luciferase translation blockers – H4 neuroglioma cells, luminescence, confirmation (AID 1988). The test is classed as functional, cell-based.
Test [10] in a line: viability of PTEN-deleted HCT116 cells – cell-based, HCT116 PTEN knockout, dose response (AID 1047).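 Also: HCT116 colon tumor cells with PTEN knocked out; cells exposed to compound for 60 hours before readout; potency for loss of cell viability measured by luminescence.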 Type of test: functional.
The nature of test [11]: Luminescence Cell-Based Dose Response HTS to Identify Inhibitors of 5'UTR Stem-Loop Driven Prion Protein mRNA Translation in H4 Neuroglioblastoma Cells. [Related pubchem assays: 1827 (Project Summary), 1813 (Primary HTS)]. Type of test: functional.
Test [12] can be described thus: viability of HCT116 lacking mutant beta-catenin – cell-based, human colon tumor, dose response (AID 1045).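 Also: HCT116 colon tumor cells with beta catenin knocked out; cells exposed to compound for 60 hours.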 The test is classed as functional.
The next test deals with INS1. The test is described as follows: INS-1E survival protection against cytokine death – cell-based, luminescence, retest, dose response (AID 449756).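 Also: cell death triggered by IL-1 beta plus TNF-alpha plus IFN-gamma mixture; protective hits raise ATP signal compared with cytokine alone wells.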 The note with it: Rattus norvegicus. Type of test: functional.

T4 sequence (P11940 whole entry, the tested form may be a part): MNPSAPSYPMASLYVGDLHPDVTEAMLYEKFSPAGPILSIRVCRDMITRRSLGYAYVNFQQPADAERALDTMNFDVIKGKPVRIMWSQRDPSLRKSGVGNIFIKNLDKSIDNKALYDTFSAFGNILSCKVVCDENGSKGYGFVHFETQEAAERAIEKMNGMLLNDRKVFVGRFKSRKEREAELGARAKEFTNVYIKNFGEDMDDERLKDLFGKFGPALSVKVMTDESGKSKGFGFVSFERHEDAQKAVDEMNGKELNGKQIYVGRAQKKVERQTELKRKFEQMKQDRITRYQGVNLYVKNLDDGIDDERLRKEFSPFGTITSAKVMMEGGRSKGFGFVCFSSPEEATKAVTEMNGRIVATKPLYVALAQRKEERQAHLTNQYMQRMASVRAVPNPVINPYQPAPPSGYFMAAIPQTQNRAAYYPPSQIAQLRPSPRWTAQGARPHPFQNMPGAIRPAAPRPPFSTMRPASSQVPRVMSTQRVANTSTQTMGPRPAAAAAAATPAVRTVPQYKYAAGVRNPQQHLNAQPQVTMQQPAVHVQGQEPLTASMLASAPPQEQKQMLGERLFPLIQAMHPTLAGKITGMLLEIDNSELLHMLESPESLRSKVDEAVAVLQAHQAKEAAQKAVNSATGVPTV

Turning to `C/C(NCc1ccc2c(c1)OCO2)=C1/C(=O)NC(=O)N(c2ccccc2)C1=O`, the half-maximal effective concentration (EC50) in [1] and in test [2] was > 300 µM (not active) each time.
With `COc1ccc(/C=C2/N=C(c3cccs3)OC2=O)cc1OC(C)C`, the 50% effective concentration (EC50) in test [1] is > 300 µM (not active); in test [2], 41.1 µM (active).
`COc1ccc(C(=O)N=C(N)Nc2nc3ccccc3o2)cc1`: the half-maximal effective concentration (EC50) in [3] was 24.2 µM (active); in the test with H4, 29.5 µM (active); in test [4], > 120 µM (not active).
Consider `O=C(c1cccnc1S)N1CCN(S(=O)(=O)c2ccc(Br)cc2Cl)CC1`, for which the EC50 in test [5] is > 260 µM (inactive).
Turning to `Cc1cccc(-c2nc(=S)c3c(o2)CCCC3)c1`, the IC50 in test [6] and in test [7] was > 66 µM (inactive) throughout.
As to `Cc1cccn2c(=O)c3cc(C(=O)NCCN4CCOCC4)c(=N)n(Cc4cccnc4)c3nc12`, the concentration giving a half-maximal response (EC50) in [8] was 12.6 µM (active); in test [1], > 300 µM (not active); in [9], 9.91 µM (active); in [2] it was 87.2 µM (active).
In the case of `CC(C)CCn1c(N2CCN(c3cccc(Cl)c3)CC2)nc2c1c(=O)[nH]c(=O)n2C`, the EC50 in test [10] is 26.1 µM (active); in [11] it was > 60 µM (not active); in [8], 18.9 µM (active); in test [12] it was 33.5 µM (active); in test [9], > 120 µM (not active).
As to `Cc1ccc2sc(C)[n+](CCC(C)S(=O)(=O)[O-])c2c1` (stereo not given), the IC50 in test [6] and in [7] was > 66 µM (inactive) throughout.
Regarding `c1ccc(CN2CCN(c3nc(-c4ccccn4)nc4ccccc34)CC2)cc1`, the EC50 in [10] was 10.6 µM (active); in test [12], 8.05 µM (active).
For `Brc1ccc2oc3c(N4CCOCC4)ncnc3c2c1`, the concentration for a half-maximal effect (EC50) in test [3] is 4.18 µM (active); with H4, 14.7 µM (active); in [4] it was 18.5 µM (active).
Turning to `COc1ccc(NC(S)=Nc2ccc3nccnc3c2)cc1`, the values for the EC50 (in test [3]; with H4; in test [4]) were 7.7 µM (active), 8.17 µM (active) and > 120 µM (not active), respectively.
Take `CCOC(=O)c1sc(NC(=O)c2c(C)nn(Cc3ccccc3)c2C)cc1C`: the EC50 was 30.4 µM (active) in test [10] and 27.7 µM (active) in [12]. For the same compound, the AC50 with INS1 was 37.2 µM (active).
Take `CCSc1sccc1C1C(C#N)=C(N)N(c2cccnc2)C2=C1C(=O)CCC2` (stereo not given): the IC50 in [6] and in [7] was > 66 µM (inactive) throughout.
As for `Cn1c(=O)c(C(=O)CSc2nnc(Nc3ccccc3)s2)c(N)n(Cc2ccccc2)c1=O`, the EC50 was 8.05 µM (active) in test [10] and 9.15 µM (active) in test [12].
For the compound `Cc1cnn(-c2cc(Oc3ccccc3)ncn2)c1`, the figures for the EC50 (in test [3]; with H4; in [4]) were 97.4 µM (active), 11 µM (active) and 1.11 µM (active), respectively.
`CCOc1cc(C(=S)N2CCOCC2)ccc1OC`: the IC50 in test [6] and in test [7] was > 66 µM (inactive) in each case.
On to `CCC(C(=O)NC1CCCC1)N(C(=O)Cn1nnc(-c2ccc(C)o2)n1)c1cnc2ccccc2c1` (stereo not given), for which the EC50 is 17.2 µM (active) in [10] and 17.5 µM (active) in [12].
Consider `Cc1ccn2c(=O)nc(SCC(=O)Nc3cc(C)on3)nc2c1`, for which the concentration for a half-maximal effect (EC50) in [1] and in [2] was > 300 µM (not active) in each case.
For `CC1Cc2ccccc2N1C(=O)CSc1n[nH]c2c3cc(F)ccc3nc-2n1` (stereo not given), the EC50 is 24.5 µM (active) in test [10] and 25 µM (active) in test [12].
Regarding `COC(=O)CCC(=O)OC1(C)C(=O)C2=COC(c3ccc(OC)cc3)=CC2=C(Br)C1=O` (stereo not given), the concentration for a half-maximal effect (EC50) was 91.5 µM (active) in test [1] and 33.1 µM (active) in test [2].
As for `COc1ccc(OCC(=O)NC(=S)Nc2ccc(S(=O)(=O)Nc3cc(OC)nc(OC)n3)cc2)cc1`, the IC50 in test [6] and in test [7] was > 66 µM (inactive) in each case.
As to `CS(=O)(=O)NNC(=O)Cn1nnc(-c2ccc(OCc3ccccc3Cl)cc2)n1`, the EC50 in test [3] was 25 µM (active); with H4, > 120 µM (not active); in test [4], 18.2 µM (active).
For the compound `NS(=O)(=O)c1ccc(NC(=O)COC(=O)c2cn(-c3ccccc3)nc2-c2ccc(F)cc2)cc1`, the EC50 in test [1] and in test [2] was > 300 µM (not active) each time.
Take `COc1ccc(C2C(C#N)=C(N)OC3=C2C(=O)CCC3)cc1Cn1nc(C)c([N+](=O)[O-])c1C` (stereo not given): the EC50 in [1] and in test [2] was > 300 µM (not active) each time.
As for `Cc1cc(C)cc(NC(=O)CN2C(=O)NC(C)(c3ccccc3)C2=O)c1` (stereo not given), the EC50 in test [5] is > 260 µM (inactive).
Turning to `Cn1c(SCc2cccc(C(F)(F)F)c2)nnc1-c1ccco1`, the EC50 in [5] was > 260 µM (inactive).
Take `Oc1ccc(C(=S)N2CCCCCC2)cc1`: the IC50 in test [6] and in [7] was > 66 µM (inactive) throughout.
For the compound `Cc1ccc(NC(=O)c2cc(-c3ccccc3)nn2-c2ccccc2)c(Br)c1`, the concentration giving a half-maximal response (EC50) was 34.6 µM (active) in test [10] and 23.5 µM (active) in [12].
For the compound `COC(=O)c1ccc(-n2cnc3ccccc32)nc1`, the half-maximal effective concentration (EC50) in test [3] is 16.1 µM (active); in the test with H4, > 120 µM (not active); in [4] it was 14.1 µM (active).
`CC(=O)c1c(N2CCOCC2)nc(=S)n(-c2ccccc2)c1C`: the IC50 in test [6] and in test [7] was > 66 µM (inactive) throughout.
Consider `Cc1cccc(CC(C)NC(=O)c2oc3c(F)cccc3c2C)n1` (stereo not given), for which, in test [5], the EC50 was > 260 µM (inactive).
Regarding `O=C(CSc1ccccc1C(=O)O)NC1CCCCCC1`, the IC50 in test [6] and in test [7] was > 66 µM (inactive) in each case.
`COc1cc2c(cc1OC)CN(C(=O)CSc1ccccc1C)CC2`: the IC50 in test [6] and in [7] was > 66 µM (inactive) each time.
Turning to `Cc1ccccc1Nc1nc(N)nc(O)c1N=O`, the IC50 was 38.2 µM (inactive) in test [6] and > 66 µM (inactive) in test [7].
In the case of `C(=N\Nc1nc(-c2ccccc2)cs1)/c1ccco1`, the values for the 50% effective concentration (EC50) (in test [3]; with H4; in test [4]) were 7.64 µM (active), 33.2 µM (active) and 5.18 µM (active), respectively.
The like results for `CCCCc1noc2c1/C(=N\O)CC(c1ccccc1)C2` (stereo not given) were, in that order, 6.02 µM (active), 27.9 µM (active) and > 120 µM (not active).
The like results for `COC(=O)c1ccc(CO/N=C2\CCCc3nonc32)cc1` were, in that order, 17.8 µM (active), 12.9 µM (active) and 92.4 µM (active).

What is called EC50 is the concentration at which the effect is half-maximal. The term AC50 denotes the concentration at which the activity in the assay is half-maximal.
